Results: PubChem BioAssay (NCI)
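Following 48 hours of exposure in 96-well plates, responses at five concentrations were used to interpolate endpoints linearly. Definition used: TGI = concentration required for complete inhibition of growth.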

Columns and labels:
Assay in all cases: NCI anticancer screen, dose series, 48 h
786-0 renal = tested on: 786-0 renal
A498 renal = tested on: A498 renal
A549 NSCLC = tested on: A549 NSCLC
ACHN renal = tested on: ACHN renal
BT-549 breast = tested on: BT-549 breast
CAKI-1 renal = tested on: CAKI-1 renal
CCRF-CEM leukemia = tested on: CCRF-CEM leukemia
COLO 205 colon = tested on: COLO 205 colon
DU-145 prostate = tested on: DU-145 prostate
EKVX NSCLC = tested on: EKVX NSCLC
HCC-2998 colon = tested on: HCC-2998 colon
HCT-116 colon = tested on: HCT-116 colon
HCT-15 colon = tested on: HCT-15 colon
HL-60(TB) leukemia = tested on: HL-60(TB) leukemia
HOP-92 NSCLC = tested on: HOP-92 NSCLC
HS 578T breast = tested on: HS 578T breast
HT29 colon = tested on: HT29 colon
IGROV1 ovarian = tested on: IGROV1 ovarian
K-562 leukemia = tested on: K-562 leukemia
KM12 colon = tested on: KM12 colon
LOX IMVI melanoma = tested on: LOX IMVI melanoma
M14 melanoma = tested on: M14 melanoma
MALME-3M melanoma = tested on: MALME-3M melanoma
MCF7 breast = tested on: MCF7 breast
MDA-MB-231 breast = tested on: MDA-MB-231 breast
MDA-MB-435 = tested on: MDA-MB-435
MDA-N = tested on: MDA-N
MOLT-4 leukemia = tested on: MOLT-4 leukemia
NCI-H226 lung = tested on: NCI-H226 lung
NCI-H23 lung = tested on: NCI-H23 lung
NCI-H460 lung = tested on: NCI-H460 lung
NCI-H522 lung = tested on: NCI-H522 lung
NCI/ADR-RES ovarian = tested on: NCI/ADR-RES ovarian
OVCAR-3 ovarian = tested on: OVCAR-3 ovarian
OVCAR-4 ovarian = tested on: OVCAR-4 ovarian
OVCAR-5 ovarian = tested on: OVCAR-5 ovarian
OVCAR-8 ovarian = tested on: OVCAR-8 ovarian
PC-3 prostate = tested on: PC-3 prostate
RPMI-8226 leukemia = tested on: RPMI-8226 leukemia
SF-268 CNS = tested on: SF-268 CNS
SF-295 CNS = tested on: SF-295 CNS
SF-539 CNS = tested on: SF-539 CNS
SK-MEL-2 melanoma = tested on: SK-MEL-2 melanoma
SK-MEL-28 melanoma = tested on: SK-MEL-28 melanoma
SK-MEL-5 melanoma = tested on: SK-MEL-5 melanoma
SK-OV-3 ovarian = tested on: SK-OV-3 ovarian
SN12C renal = tested on: SN12C renal
SNB-19 CNS = tested on: SNB-19 CNS
SNB-75 CNS = tested on: SNB-75 CNS
SW-620 colon = tested on: SW-620 colon
T-47D breast = tested on: T-47D breast
TK-10 renal = tested on: TK-10 renal
U251 CNS = tested on: U251 CNS
UACC-257 melanoma = tested on: UACC-257 melanoma
UACC-62 melanoma = tested on: UACC-62 melanoma
UO-31 renal = tested on: UO-31 renal

Measured: TGI

O=C1CC2OCC=C3CN4CCC56c7ccccc7N1C5C2C3CC46O (stereo unspecified)
> 100 µM: all assays above
